The source of these data is patent US12319675B2 (Artax Biopharma Inc., priority 2018, dated 2025).

Where only a bound is given, the exact number is not on record here.

Data set [1] is described as follows: Microsomal stability assay, mouse. The data set is classed as in vitro ADME. The note with it: mouse microsomes, read-out: Microsomal Stability (T1/2 min) Mouse. On the procedure:
(§1) Microsomal stability assays were performed using mouse, rat, and human […] according to methods well-known in the art. Microsomal stability results are shown in Table 2 for selected compounds of the invention. The compound numbers correspond to the compound numbers in Table 1. […] “N/A” indicates not assayed.

Data set [2] can be described thus: Microsomal stability assay, rat. In kind it is in vitro ADME. The settings on record: rat microsomes, read-out: Microsomal Stability (T1/2 min) Rat. On the procedure:
as §1

Data set [3] in a line: Microsomal stability assay, human. The data set is classed as in vitro ADME. The settings on record: human microsomes, read-out: Microsomal Stability (T1/2 min) Human. On the procedure: as §1
The test system of data set [4] is CD3 mediated phosphorylation of ZAP70 in Jurkat cells. As to the kind of experiment: CD3 mediated phosphorylation of ZAP70 in Jurkat cells (HTRF). The data set is classed as cell-based. The note with it: Homo sapiens, Jurkat cells stimulated with 20 μg/mL anti-CD3 antibody; for Emax: maximum inhibition, read-out: pZAP70 Inhibition - Maximum Percent Inhibition (% Inhibition); for IC50: read-out: pZAP70 Inhibition IC50. On the procedure:
Inhibition of CD3 mediated phosphorylation of ZAP70 in Jurkat cells was measured by a cellular based Homogeneous Time-Resolved Fluorescence (HTRF) assay utilizing a Total ZAP-70 HTRF kit.
Briefly, Jurkat cells (˜1.3×10^6 cells/mL) were harvested on the day of experimentation. Cells were washed with PBS and resuspended in Assay Buffer (RPMI 1640 media plus 10% FBS) and counted.
Jurkat cells were seeded in Assay media at a total volume of 4 μL/well (40K cells/well) in a 384-low volume white flat bottom plate. The cells were then incubated at 37° C./5% CO2 for 30 minutes. The cells were then treated in duplicate with test compounds (3×) and reference compounds (3×) in a total volume of 4 μL, respectively. A compound dilution scheme is exemplified in FIG. 1.
The plate was then transferred to an incubator maintained at 37° C./5% CO2 for 2 minutes. Following incubation, cells were stimulated with 20 μg/mL of anti-CD3 antibody (1 mg/mL stock) and assay media was used to bring the total well volume 4 μL/well. The plate was then transferred to the incubator maintained at 37° C./5% CO2 for 2.5 minutes. Following incubation, 4 μL of lysis buffer (4×) provided in the kit was added to each well. The plate was then incubated at RT for 1 hour with gentle shaking. Following incubation, 4 μL of detection mix was added to each well and the plate was sealed with a plate sealer and left overnight at RT in the dark.
The Envision reader was set-up for Eu^3+ cryptate and fluorescence emission was read at two different wavelengths (620 nm and 665 nm). • Excitation filter: UV2(TRF) 320 nm • Emission filter: 665 nm • 2nd Emission filter: Europium 615 nm • Measurement height (mm): 6.5 • Excitation light (%): 100 • Delay (μs): 50 • Window time (μs): 400 • Time between flashes (μs): 2000 • Number of flashes: 100 • Number of flashes for 2nd detector: 100
The data is represented by the signal form the two wavelengths:
The ratio of the signal is calculated for each individual well:
The data was plotted using Graph Pad Prism. The significance between untreated vs. treated groups was assessed by One-way ANOVA and Bonferroni posttest comparing all columns in the graph.
ZAP70 IC50 results are shown in Table 6 for select compounds of the invention. The compound numbers correspond to the compound numbers in Table 1. […] “ND” indicates not determined.
ZAP70 percent maximum inhibition results are shown in Table 7 for select compounds of the invention. The compound numbers correspond to the compound numbers in Table 1.
(In general: TR-FRET usually uses a lanthanide donor and a delayed reading to cut background.)

On to `O=C(C1=C(c2ccc(F)cc2)c2cc(OC(F)(F)F)ccc2OC1)N1CCCC1` [Compound I-7], for which the half-life in data set [1] was below 10 min; in data set [2], below 10 min; in data set [3], 10 to 30 min.

As for `CN1CCN(CC2=C(c3ccc(F)cc3)c3cc(OC(F)(F)F)ccc3OC2)CC1` [Compound I-11, 1-((4-(4-fluorophenyl)-6-(trifluoromethoxy)-2H-chromen-3-yl)methyl)-4-methylpiperazine], the half-life in data set [1], in data set [2] and in data set [3] was above 30 min in each case. Also, the Emax in data set [4] was at most 30%. Besides, in data set [4], the half-inhibitory concentration (IC50) (in general, the midpoint of a concentration-inhibition curve) was in the range of 1 to 10 nM.

Regarding `CN1CCN(C(=O)C2=C(c3ccc(F)cc3)c3cc(OC4CC4)ccc3OC2)CC1` [Compound I-27], the half-life in data set [1], in data set [2] and in data set [3] was below 10 min throughout. Besides, the Emax in data set [4] was at most 30%. Also, the IC50 in data set [4] was above 50 nM.

Turning to `Fc1ccc(C2=C(CN3CCCC3)COc3ccc(OCCc4nnn[nH]4)cc32)cc1` [Compound I-34, 5-(2-((4-(4-fluorophenyl)-3-(pyrrolidin-1-ylmethyl)-2H-chromen-6-yl)oxy)ethyl)-1H-tetrazole], the half-life in data set [1], in data set [2] and in data set [3] was above 30 min each time. Further, the Emax in data set [4] was 30 to 40%. Further, the 50% inhibitory concentration (IC50) in data set [4] is below 1 nM.

With `CC(C)(O)CCOc1ccc2c(c1)C(c1ccc(F)cc1)=C(CN1CCCC1)CO2` [Compound I-35, 4-((4-(4-fluorophenyl)-3-(pyrrolidin-1-ylmethyl)-2H-chromen-6-yl)oxy)-2-methylbutan-2-ol], the values for the half-life in data set [1], in data set [2] and in data set [3] were 10 to 30 min, below 10 min and above 30 min, respectively. Further, the Emax in data set [4] is at most 30%. Further, the IC50 in data set [4] is 1 to 10 nM.

On to `N/C(CCOc1ccc2c(c1)C(c1ccc(F)cc1)=C(CN1CCCC1)CO2)=N\O` [Compound I-36, 3-((4-(4-fluorophenyl)-3-(pyrrolidin-1-ylmethyl)-2H-chromen-6-yl)oxy)-N-hydroxypropanimidamide], for which the half-life was 10 to 30 min in data set [1], 10 to 30 min in data set [2] and above 30 min in data set [3]. The Emax in data set [4] was in the range of 40 to 50%. Moreover, in data set [4], the IC50 is below 1 nM.

On to `O=c1[nH]c(CCOc2ccc3c(c2)C(c2ccc(F)cc2)=C(CN2CCCC2)CO3)no1` [Compound I-37, 3-(2-((4-(4-fluorophenyl)-3-(pyrrolidin-1-ylmethyl)-2H-chromen-6-yl)oxy)ethyl)-1,2,4-oxadiazol-5(2H)-one], for which the figures for the half-life in data set [1], in data set [2] and in data set [3] were above 30 min, 10 to 30 min and above 30 min, respectively. Further, the Emax in data set [4] lay in the range of 30 to 40%. Besides, the concentration for half-maximal inhibition (IC50) in data set [4] was in the range of 1 to 10 nM.

`Fc1ccc(C2=C(CN3CCCC3)COc3ccc(OCCN4CCCCC4)cc32)cc1` [Compound I-39, 1-(2-((4-(4-fluorophenyl)-3-(pyrrolidin-1-ylmethyl)-2H-chromen-6-yl)oxy)ethyl)piperidine]: the half-life in data set [1], in data set [2] and in data set [3] was above 30 min in each case. In data set [4], the Emax was at most 30%. Also, the IC50 in data set [4] was 1 to 10 nM.

`O=C(C1=C(c2ccc(F)cc2)c2cc(OCCN3CCCCC3)ccc2OC1)N1CCCC1` [Compound I-41]: the half-life in data set [1] was above 30 min; in data set [2] it was above 30 min; in data set [3], below 10 min. Moreover, the Emax in data set [4] was 30 to 40%. Also, in data set [4], the IC50 was 1 to 10 nM.

For the molecule `CC(C)(O)CCOc1ccc2c(c1)C(c1ccc(F)cc1)=C(C(=O)N1CCCC1)CO2` [Compound I-42, (4-(4-fluorophenyl)-6-(3-hydroxy-3-methylbutoxy)-2H-chromen-3-yl)(pyrrolidin-1-yl)methanone], the half-life was below 10 min in data set [1], 10 to 30 min in data set [2] and below 10 min in data set [3]. Moreover, in data set [4], the Emax was at most 30%. In addition, in data set [4], the IC50 is above 50 nM.

Consider `CN1CCN(CCOc2ccc3c(c2)C(c2ccc(F)cc2)=C(C(=O)N2CCCC2)CO3)CC1` [Compound I-43], for which the half-life in data set [1] was below 10 min; in data set [2], above 30 min; in data set [3], below 10 min. In addition, the Emax in data set [4] lay in the range of 30 to 40%. Besides, in data set [4], the IC50 is 10 to 50 nM.

As to `CN1CCN(C(=O)C2=C(c3ccc(F)cc3)c3cc(F)ccc3OC2)CC1` [Compound I-58, (6-fluoro-4-(4-fluorophenyl)-2H-chromen-3-yl)(4-methylpiperazin-1-yl)methanone], the values for the half-life in data set [1], in data set [2] and in data set [3] were below 10 min, below 10 min and above 30 min, respectively. The Emax in data set [4] was 30 to 40%. In addition, the IC50 in data set [4] is above 50 nM.

Take `CN1CCN(CC2=C(c3ccc(F)cc3)c3cc(F)ccc3OC2)CC1` [Compound I-59, 1-((6-fluoro-4-(4-fluorophenyl)-2H-chromen-3-yl)methyl)-4-methylpiperazine]: the half-life was 10 to 30 min in data set [1], below 10 min in data set [2] and above 30 min in data set [3]. Besides, the Emax in data set [4] lay in the range of 30 to 40%. The concentration for half-maximal inhibition (IC50) in data set [4] is below 1 nM.

For the molecule `CN(C)CCNCC1=C(c2ccc(F)cc2)c2cc(F)ccc2OC1` [Compound I-61, N′-((6-fluoro-4-(4-fluorophenyl)-2H-chromen-3-yl)methyl)-N^2,N^2-dimethylethane-1,2-diamine], the half-life in data set [1] is below 10 min; in data set [2], below 10 min; in data set [3] it was 10 to 30 min. Further, in data set [4], the Emax fell in the range of 40 to 50%. Further, the 50% inhibitory concentration (IC50) in data set [4] lay within 1 to 10 nM.

For `O=C(C1=C(c2ccc(F)cc2)c2cc(F)ccc2OC1)N1CCCC1` [Compound I-62], in data set [4], the Emax is 30 to 40% and the IC50 fell in the range of 1 to 10 nM.

For `CN1CCN(CC2=C(c3ccc(F)cc3)c3cc(OCCC(=O)O)ccc3OC2)CC1` [Compound I-64], in data set [4], the Emax is 30 to 40% and the IC50 was in the range of 1 to 10 nM.

Consider `CC(C)(COc1ccc2c(c1)C(c1ccc(F)cc1)=C(CN1CCCC1)CO2)C(=O)O` [Compound I-66], for which, in data set [4], the Emax is above 50% and the IC50 fell in the range of 1 to 10 nM.

Take `O=C(O)CCCOc1ccc2c(c1)C(c1ccc(F)cc1)=C(CN1CCCC1)CO2` [Compound I-67]: in data set [4], the Emax was above 50% and the IC50 lay within 10 to 50 nM.

As to `O=C(O)CCOc1ccc2c(c1)C(c1ccc(C(F)(F)F)cc1)=C(CN1CCCC1)CO2` [Compound I-68], in data set [4], the Emax is above 50% and the half-inhibitory concentration (IC50) was below 1 nM.

In the case of `CN1CCN(CC2=C(c3ccc(C(F)(F)F)cc3)c3cc(OCCC(=O)O)ccc3OC2)CC1` [Compound I-69], in data set [4], the Emax was above 50% and the IC50 is 1 to 10 nM.

As for `CN(C)CCNCC1=C(c2ccc(C(F)(F)F)cc2)c2cc(OCCC(=O)O)ccc2OC1` [Compound I-70], in data set [4], the Emax fell in the range of 40 to 50% and the IC50 was 1 to 10 nM.

Regarding `CC(C)(COc1ccc2c(c1)C(c1ccc(C(F)(F)F)cc1)=C(CN1CCOCC1)CO2)C(=O)O` [Compound I-79], in data set [4], the Emax was above 50% and the concentration for half-maximal inhibition (IC50) lay in the range of 1 to 10 nM.

On to `CC(C)(COc1ccc2c(c1)C(c1ccc(F)cc1)=C(CN1CCOCC1)CO2)C(=O)O` [Compound I-80], for which, in data set [4], the Emax was above 50% and the IC50 is 1 to 10 nM.

As to `CC(C)(COc1ccc2c(c1)C(c1ccc(C(F)(F)F)cc1)=C(CN1CCCC1)CO2)C(=O)O` [Compound I-81], in data set [4], the Emax is above 50% and the concentration for half-maximal inhibition (IC50) is 1 to 10 nM.
